# Data published in patent publication US20230339863A1, “INDAZOLE DERIVATIVES AS CANNABINOID RECEPTOR PARTIAL AGONISTS” (RESEARCH TRIANGLE INSTITUTE, priority 2020, published 2023).
# What was measured:
# human CB1 = human CB1 (Homo sapiens (Human), UniProt P21554); assay: In vitro cannabinoid receptor activity assay (calcium mobilization, FLIPR) in CHO cells expressing human CB1 and Gαq16; format: cell-based; conditions: for EC50: CHO cells, hCB1, calcium fluorescence, read-out: hCB1 Ca EC50; for hCB1 Ca Span: percentage of the maximum CP55940 signal
# Method: (§1) In vitro cannabinoid receptor activity assay. Chinese Hamster Ovary (CHO) cells stably expressing either human CB1 or CB2 cDNA and the promiscuous G-protein Gαq16 were transferred to each well of a black Costar 96-well optical bottom plate (Corning Corporation). Each plate was incubated at 37° C. for 24 hr to confluence. The culture media was removed from the plates and cells were subsequently loaded with a fluorescent calcium probe (Calcium 5 dye, Molecular Devices) at a final loading concentration of 2 μM in a HBSS-based buffer containing 20 mM HEPES, 1% BSA and 10 μM Probenecid (Sigma) in a total volume of 225 μl. Cells were incubated at 37° C. for 1 hr and then stimulated with various concentrations of a test agent using a FLIPR Tetra plate-reader, which automatically added the agonist at 10× concentration to each well after reading baseline values for ˜17 sec. Agonist-mediated change in fluorescence (488 nm excitation, 525 nm emission) was monitored in each well at 1 sec intervals for 60 sec and reported for each well. Data were analyzed using Prism software (GraphPad). Non-linear regression analysis was performed to fit data and obtain maximum response (Emax), effective concentration for 50% response (EC50), correlation coefficient (r2) and other parameters. All experiments were performed 3-6 times to ensure reproducibility.
# (§2) Reference is made to the following reference, hereby incorporated by reference with regard to such assay, Seltzman, et al., Peripherally Selective Cannabinoid 1 Receptor (CB1R) Agonists for the Treatment of Neuropathic Pain, J Med Chem. 2016 Aug. 25; 59 (16):7525-43. doi: 10.1021/acs.jmedchem.6b00516. Epub 2016 Aug. 10.
# human CB2 = human CB2 (Homo sapiens (Human), UniProt P34972); assay: In vitro cannabinoid receptor activity assay (calcium mobilization, FLIPR) in CHO cells expressing human CB2 and Gαq16; format: cell-based; conditions: for EC50: CHO cells, hCB2, calcium fluorescence, read-out: hCB2 Ca EC50; for hCB2 Ca Span: percentage of the maximum CP55940 signal
# Method: as §1, §2
Structure (SMILES),EC50 (human CB1) [nM],hCB1 Ca Span (human CB1) [%],EC50 (human CB2) [nM],hCB2 Ca Span (human CB2) [%]
"CC(C)(NC(=O)c1nn(CCCCC(F)(F)F)c2ccccc12)c1cccc(C(N)=O)c1 [Example 19, N-[2-(3-Carbamoylphenyl)propan-2-yl]-1-(5,5,5-trifluoropentyl)-1H-indazole-3-carboxamide]",150,64,480,39
"CC(C)(NC(=O)c1nn(Cc2ccc(F)cc2)c2ccccc12)C1CCN(C(N)=O)CC1 [Example 31, N-[2-(1-Carbamoylpiperidin-4-yl)propan-2-yl]-1-[(4-fluorophenyl)methyl]-1H-indazole-3-carboxamide]",1000,64,140,57
"CCCCCn1nc(C(=O)NC(C)(C)c2cccc(C(N)=O)c2)c2ccccc21 [Example 17, N-[2-(3-Carbamoylphenyl)propan-2-yl]-1-pentyl-1H-indazole-3-carboxamide]",220,24,180,43
"CCCCCn1nc(C(=O)NC(C)(C)c2cccc(NC(=O)NC)c2)c2ccccc21 [Example 27, N-(2-{3-[(Methylcarbamoyl)amino]phenyl}propan-2-yl)-1-pentyl-1H-indazole-3-carboxamide]",100,100,170,55
"CC(C)(NC(=O)c1nn(Cc2ccc(F)cc2)c2ccccc12)C1CCCN(C(N)=O)C1 (stereo not drawn) [Example 29, N-[2-(1-Carbamoylpiperidin-3-yl)propan-2-yl]-1-[(4-fluorophenyl)methyl]-1H-indazole-3-carboxamide]",140,75,46,36
"CC(C)(NC(=O)c1nn(CCCCCF)c2ccccc12)c1cccc(C(N)=O)c1 [Example 18, N-[2-(3-Carbamoylphenyl)propan-2-yl]-1-(5-fluoropentyl)-1H-indazole-3-carboxamide]",78,27,84,35
"CCCCCn1nc(C(=O)NC(C)(C)c2cccc(NC(N)=O)c2)c2ccccc21 [Example 24, N-{2-[3-(Carbamoylamino)phenyl]propan-2-yl}-1-pentyl-1H-indazole-3-carboxamide]",1300,52,320,47
"CC(C)(NC(=O)c1nn(CC2CCC(F)(F)CC2)c2ccccc12)c1cccc(NC(N)=O)c1 [Example 22, N-{2-[3-(Carbamoylamino)phenyl]propan-2-yl}-1-[(4,4-difluorocyclohexyl)methyl]-1H-indazole-3-carboxamide]",160,89,58,51
"CC(C)(NC(=O)c1nn(CCCCCF)c2ccccc12)c1cccc(NC(N)=O)c1 [Example 25, N-{2-[3-(carbamoylamino)phenyl]propan-2-yl}-1-(5-fluoropentyl)-1H-indazole-3-carboxamide]",570,65,170,51
"CC(C)(NC(=O)c1nn(CC2CCOCC2)c2ccccc12)c1cccc(NC(N)=O)c1 [Example 23, N-{2-[3-(Carbamoylamino)phenyl]propan-2-yl}-1-(oxan-4-ylmethyl)-1H-indazole-3-carboxamide]",1200,91,94,61
"C[C@@H](NC(=O)c1nn(Cc2ccc(F)cc2)c2ccccc12)c1cccc(C(N)=O)c1 [Example 10, N-[(1R)-1-(3-Carbamoylphenyl)ethyl]-1-[(4-fluorophenyl)methyl]-1H-indazole-3-carboxamide]",490,19,660,25
"CNC(=O)Nc1cccc(C(C)(C)NC(=O)c2nn(CC3CCC(F)(F)CC3)c3ccccc23)c1 [Example 26, 1-[(4,4-Difluorocyclohexyl)methyl]-N-(2-{3-[(methylcarbamoyl)amino]phenyl}propan-2-yl)-1H-indazole-3-carboxamide]",16,110,34,61
"CC(C)(NC(=O)c1nn(CC2CCC(F)(F)CC2)c2ccccc12)c1cccc(C(N)=O)c1 [Example 15, N-[2-(3-Carbamoylphenyl)propan-2-yl]-1-[(4,4-difluorocyclohexyl)methyl]-1H-indazole-3-carboxamide]",15,86,51,38
"CC(C)(NC(=O)c1nn(Cc2ccc(F)cc2)c2ccccc12)C1CCN(CC(N)=O)CC1 [Example 32, N-{2-[1-(Carbamoylmethyl)piperidin-4-yl]propan-2-yl}-1-[(4-fluorophenyl)methyl]-1H-indazole-3-carboxamide]",40,110,29,62
"CC(C)(NC(=O)c1nn(CC2CCOCC2)c2ccccc12)c1cccc(C(N)=O)c1 [Example 16, N-[2-(3-Carbamoylphenyl)propan-2-yl]-1-(oxan-4-ylmethyl)-1H-indazole-3-carboxamide]",140,92,63,57
"CC(c1ccc(F)cc1)n1nc(C(=O)NC(C)(C)c2cccc(C(N)=O)c2)c2ccccc21 (stereo not drawn) [Example 14, N-[2-(3-Carbamoylphenyl)propan-2-yl]-1-[1-(4-fluorophenyl)ethyl]-1H-indazole-3-carboxamide]",240,76,> 10000,
"CC(C)(NC(=O)c1cn(Cc2ccc(F)cc2)c2ccccc12)c1cccc(C(N)=O)c1 [Example 33, N-[2-(3-Carbamoylphenyl)propan-2-yl]-1-[(4-fluorophenyl)methyl]-1H-indole-3-carboxamide]",870,25,160,30
"CC(C)(NC(=O)c1nn(Cc2ccc(F)cc2)c2ccccc12)c1cccc(NC(N)=O)c1 [Example 21, N-{2-[3-(Carbamoylamino)phenyl]propan-2-yl}-1-[(4-fluorophenyl)methyl]-1H-indazole-3-carboxamide]",1600,34,160,34
"CNC(=O)Nc1cccc(C(C)(C)NC(=O)c2nn(CCCCCF)c3ccccc23)c1 [Example 28, 1-(5-Fluoropentyl)-N-(2-{3-[(methylcarbamoyl)amino]phenyl}propan-2-yl)-1H-indazole-3-carboxamide]",30,100,65,61
